Values quoted from earlier work in patent US9663462B2, “Anti-parasitic methods and compositions utilizing diindolylmethane-related indoles” (BioResponse, L.L.C., priority 2006, dated 2017).

Assays:
[1] = test system: chemically induced forms of breast cancer; conditions: orally administered, animals
[2] = biological target: Leishmania donovani topoisomerase I (LdTOPILS); conditions: read-out: IC50, inhibition of Leishmania donovani topoisomerase I (LdTOPILS)
rainbow trout = conditions: in vivo
[3] = metabolic half life of DIM
[4] = test system: estrogen-dependent and independent breast cancer cells; conditions: isolated DIM, cell culture
[5] = test system: Mitogen Activated Protein Kinase (MAPK) cell signaling pathway; conditions: cell culture
[6] = test system: Human Papilloma Virus (HPV) oncogene altered cervical cancer cell lines
[7] = once formed from I3C
NFκB signaling pathway = conditions: breast cancer cells

IC50 [2]: 1200 nM
half-life [3]: 2 to 7 h
stability in acid [7]: stable
SMILES: c1ccc2c(Cc3c[nH]c4ccccc34)c[nH]c2c1 [DIM, 3,3′-diindolylmethane]
growth of chemically induced breast cancer [1]: inhibits the growth
estrogenic activity (rainbow trout): estrogenic
apoptosis promoting effects [4]: apoptosis promoting effects
activation of MAPK cell signaling pathway [5]: activate
induction of apoptosis [6]: induce apoptosis
activation of the NFκB signaling pathway (NFκB signaling pathway): reduce activation
estrogenic activity (breast cancer cells): estrogenic
